The text below walks through data of US8748415B2 (priority 2011, dated 2014).

The test system of the test is recombinant NL4-3 virus (Renilla luciferase in nef, Gag P373S). Put plainly: HIV cell culture assay (luciferase activity in MT-2 cells infected with NLRluc recombinant virus). The format is cell-based. The following applies: NL43, MT-2 cells infected 4-5 days with NLRluc recombinant virus. As to the method:
HIV cell culture assay—MT-2 cells and 293T cells were obtained from the NIH AIDS Research and Reference Reagent Program. MT-2 cells were propagated in RPMI 1640 media supplemented with 10% heat inactivated fetal bovine serum, […]. The 293T cells were propagated in DMEM media supplemented with 10% heat inactivated fetal bovine serum (FBS), 100 units/ml penicillin G and 100 μg/ml streptomycin. The proviral DNA clone of NL4-3 was obtained from the NIH AIDS Research and Reference Reagent Program. A recombinant NL4-3 virus, in which a section of the nef gene from NL4-3 was replaced with the Renilla luciferase gene, was used as a reference virus. In addition, residue Gag P373 was converted to P373S. Briefly, the recombinant virus was prepared by transfection of the altered proviral clone of NL4-3. Transfections were performed in 293T cells using LipofectAMINE PLUS from Invitrogen (Carlsbad, Calif.), according to manufacturer's instruction. The virus was titered in MT-2 cells using luciferase enzyme activity as a marker. Luciferase was quantitated using the Dual Luciferase kit from Promega (Madison, Wis.), with modifications to the manufacturer's protocol. The diluted Passive Lysis solution was pre-mixed with the re-suspended Luciferase Assay Reagent and the re-suspended Stop & Glo Substrate (2:1:1 ratio). Fifty (50) μL of the mixture was added to each aspirated well on assay plates and luciferase activity was measured immediately on a Wallac TriLux (Perkin-Elmer). Antiviral activities of inhibitors toward the recombinant virus were quantified by measuring luciferase activity in cells infected for 4-5 days with NLRluc recombinants in the presence serial dilutions of the inhibitor. Table 1 is the key for the data in Table 2.

A word on the EC50: it is the concentration that produces a half-maximal response.

Molecules are shown by their SMILES.

In the case of `C=C(C)[C@@H]1CC[C@]2(CNCCCC(=O)OC(C)(C)C)CC[C@]3(C)[C@H](CC[C@@H]4[C@@]5(C)CC=C(c6ccc(C(=O)O)cc6)C(C)(C)[C@@H]5CC[C@]43C)[C@@H]12` [Example 27, 4-((1R,3aS,5aR,5bR,7aR,11aS,11bR,13aR,13bR)-3a-((4-tert-butoxy-4-oxobutylamino)methyl)-5a,5b,8,8,11a-pentamethyl-1-(prop-1-en-2-yl)-2,3,3a,4,5,5a,5b,6,7,7a,8,11,11a,11b,12,13,13a,13b-octadecahydro-1H-cyclopenta[a]chrysen-9-yl)benzoic acid], the 50% effective concentration (EC50) (class symbol) was less than 100 nM.

For `C=C(C)[C@@H]1CC[C@]2(CNCCCC(=O)O)CC[C@]3(C)[C@H](CC[C@@H]4[C@@]5(C)CC=C(c6ccc(C(=O)O)cc6)C(C)(C)[C@@H]5CC[C@]43C)[C@@H]12` [Example 28, 4-((1R,3aS,5aR,5bR,7aR,11aS,11bR,13aR,13bR)-3a-((3-carboxypropylamino)methyl)-5a,5b,8,8,11a-pentamethyl-1-(prop-1-en-2-yl)-2,3,3a,4,5,5a,5b,6,7,7a,8,11,11a,11b,12,13,13a,13b-octadecahydro-1H-cyclopenta[a]chrysen-9-yl)benzoic acid], under “numeric value”, the 50% effective concentration (EC50) amounted to 2 nM.

As to `C=C(C)[C@@H]1CC[C@]2(CN3CCCC3=O)CC[C@]3(C)[C@H](CC[C@@H]4[C@@]5(C)CC=C(c6ccc(C(=O)O)cc6)C(C)(C)[C@@H]5CC[C@]43C)[C@@H]12` [Example 29], the EC50 (numeric value) came out at 1000 nM.

For `C=C(C)[C@@H]1CC[C@]2(CNCC(=O)OC)CC[C@]3(C)[C@H](CC[C@@H]4[C@@]5(C)CC=C(c6ccc(C(=O)O)cc6)C(C)(C)[C@@H]5CC[C@]43C)[C@@H]12` [Example 30, 4-((1R,3aS,5aR,5bR,7aR,11aS,11bR,13aR,13bR)-3a-((2-methoxy-2-oxoethylamino)methyl)-5a,5b,8,8,11a-pentamethyl-1-(prop-1-en-2-yl)-2,3,3a,4,5,5a,5b,6,7,7a,8,11,11a,11b,12,13,13a,13b-octadecahydro-1H-cyclopenta[a]chrysen-9-yl)benzoic acid], the EC50 (class symbol) was less than 100 nM.

With `C=C(C)[C@@H]1CC[C@]2(CNCC(=O)O)CC[C@]3(C)[C@H](CC[C@@H]4[C@@]5(C)CC=C(c6ccc(C(=O)O)cc6)C(C)(C)[C@@H]5CC[C@]43C)[C@@H]12` [Example 31, 4-((1R,3aS,5aR,5bR,7aR,11aS,11bR,13aR,13bR)-3a-((carboxymethylamino)methyl)-5a,5b,8,8,11a-pentamethyl-1-(prop-1-en-2-yl)-2,3,3a,4,5,5a,5b,6,7,7a,8,11,11a,11b,12,13,13a,13b-octadecahydro-1H-cyclopenta[a]chrysen-9-yl)benzoic acid], the EC50 (class symbol) is less than 100 nM.

Consider `C=C(C)[C@@H]1CC[C@]2(CN(C)CCN3CCS(=O)(=O)CC3)CC[C@]3(C)[C@H](CC[C@@H]4[C@@]5(C)CC=C(c6ccc(C(=O)O)cc6)C(C)(C)[C@@H]5CC[C@]43C)[C@@H]12` [Example 33], for which, where the note is “class symbol”, the EC50 is less than 100 nM.

Turning to `C=C(C)[C@@H]1CC[C@]2(CNCCN3CCCC3=O)CC[C@]3(C)[C@H](CC[C@@H]4[C@@]5(C)CC=C(c6ccc(C(=O)O)cc6)C(C)(C)[C@@H]5CC[C@]43C)[C@@H]12` [Example 34, 4-((1R,3aS,5aR,5bR,7aR,11aS,11bR,13aR,13bR)-5a,5b,8,8,11a-pentamethyl-3a-((2-(2-oxopyrrolidin-1-yl)ethylamino)methyl)-1-(prop-1-en-2-yl)-2,3,3a,4,5,5a,5b,6,7,7a,8,11,11a,11b,12,13,13a,13b-octadecahydro-1H-cyclopenta[a]chrysen-9-yl)benzoic acid], the EC50 (class symbol) is less than 100 nM.

For `C=C(C)[C@@H]1CC[C@]2(CNCc3ccc(S(N)(=O)=O)cc3)CC[C@]3(C)[C@H](CC[C@@H]4[C@@]5(C)CC=C(c6ccc(C(=O)O)cc6)C(C)(C)[C@@H]5CC[C@]43C)[C@@H]12` [Example 35], where the note is “class symbol”, the EC50 is less than 100 nM.

As for `C=C(C)[C@@H]1CC[C@]2(CNCCc3ccc(S(N)(=O)=O)cc3)CC[C@]3(C)[C@H](CC[C@@H]4[C@@]5(C)CC=C(c6ccc(C(=O)O)cc6)C(C)(C)[C@@H]5CC[C@]43C)[C@@H]12` [Example 36, 4-((1R,3aS,5aR,5bR,7aR,11aS,11bR,13aR,13bR)-5a,5b,8,8,11a-pentamethyl-1-(prop-1-en-2-yl)-3a-((4-sulfamylphenethylamino)methyl)-2,3,3a,4,5,5a,5b,6,7,7a,8,11,11a,11b,12,13,13a,13b-octadecahydro-1H-cyclopenta[a]chrysen-9-yl)benzoic acid], the concentration for a half-maximal effect (EC50) (class symbol) was less than 100 nM.

As for `CC(C)[C@@H]1CC[C@]2(CNCCCN3CCS(=O)(=O)CC3)CC[C@]3(C)[C@H](CC[C@@H]4[C@@]5(C)CC=C(c6ccc(C(=O)O)cc6)C(C)(C)[C@@H]5CC[C@]43C)[C@@H]12` [Example 37, 4-((1R,3aS,5aR,5bR,7aR,11aS,11bR,13aR,13bR)-5a,5b,8,8,11a-pentamethyl-1-(prop-1-en-2-yl)-3a-((3-(1-dioxo-thiomorpholino)propylamino)methyl)-2,3,3a,4,5,5a,5b,6,7,7a,8,11,11a,11b,12,13,13a,13b-octadecahydro-1H-cyclopenta[a]chrysen-9-yl)benzoic acid], the EC50 (class symbol) was less than 100 nM.

In the case of `C=C(C)[C@@H]1CC[C@]2(CNCCCC(=O)OC)CC[C@]3(C)[C@H](CC[C@@H]4[C@@]5(C)CC=C(c6ccc(C(=O)O)cc6)C(C)(C)[C@@H]5CC[C@]43C)[C@@H]12` [Example 38, 4-((1R,3aS,5aR,5bR,7aR,11aS,11bR,13aR,13bR)-3a-((4-methoxy-4-oxobutylamino)methyl)-5a,5b,8,8,11a-pentamethyl-1-(prop-1-en-2-yl)-2,3,3a,4,5,5a,5b,6,7,7a,8,11,11a,11b,12,13,13a,13b-octadecahydro-1H-cyclopenta[a]chrysen-9-yl)benzoic acid], the concentration giving a half-maximal response (EC50) (class symbol) is less than 100 nM.

Consider `C=C(C)[C@@H]1CC[C@]2(CNCC(=O)N(C)C)CC[C@]3(C)[C@H](CC[C@@H]4[C@@]5(C)CC=C(c6ccc(C(=O)O)cc6)C(C)(C)[C@@H]5CC[C@]43C)[C@@H]12` [Example 39, 4-((1R,3aS,5aR,5bR,7aR,11aS,11bR,13aR,13bR)-3a-((2-(dimethylamino)-2-oxoethylamino)methyl)-5a,5b,8,8,11a-pentamethyl-1-(prop-1-en-2-yl)-2,3,3a,4,5,5a,5b,6,7,7a,8,11,11a,11b,12,13,13a,13b-octadecahydro-1H-cyclopenta[a]chrysen-9-yl)benzoic acid], for which the EC50 (class symbol) was less than 100 nM.

Take `C=C(C)[C@@H]1CC[C@]2(CNCCCN3CCCS3(=O)=O)CC[C@]3(C)[C@H](CC[C@@H]4[C@@]5(C)CC=C(c6ccc(C(=O)O)cc6)C(C)(C)[C@@H]5CC[C@]43C)[C@@H]12` [Example 40, 4-((1R,3aS,5aR,5bR,7aR,11aS,11bR,13aR,13bR)-3a-(((3-(1,1-dioxido-2-isothiazolidinyl)propyl)amino)methyl)-1-isopropenyl-5a,5b,8,8,11a-pentamethyl-2,3,3a,4,5,5a,5b,6,7,7a,8,11,11a,11b,12,13,13a,13b-octadecahydro-1H-cyclopenta[a]chrysen-9-yl)benzoic acid]: the EC50 (class symbol) is less than 100 nM.

For `C=C(C)[C@@H]1CC[C@]2(CNCCS(C)(=O)=O)CC[C@]3(C)[C@H](CC[C@@H]4[C@@]5(C)CC=C(c6ccc(C(=O)O)cc6)C(C)(C)[C@@H]5CC[C@]43C)[C@@H]12` [Example 41, 4-((1R,3aS,5aR,5bR,7aR,11aS,11bR,13aR,13bR)-5a,5b,8,8,11a-pentamethyl-3a-((2-(methylsulfonyl)ethylamino)methyl)-1-(prop-1-en-2-yl)-2,3,3a,4,5,5a,5b,6,7,7a,8,11,11a,11b,12,13,13a,13b-octadecahydro-1H-cyclopenta[a]chrysen-9-yl)benzoic acid], for the setting “class symbol”, the 50% effective concentration (EC50) is less than 100 nM.

Take `C=C(C)[C@@H]1CC[C@]2(CNCC(OCC)OCC)CC[C@]3(C)[C@H](CC[C@@H]4[C@@]5(C)CC=C(c6ccc(C(=O)O)cc6)C(C)(C)[C@@H]5CC[C@]43C)[C@@H]12` [Example 42, 4-((1R,3aS,5aR,5bR,7aR,11aS,11bR,13aR,13bR)-3a-((2,2-diethoxyethylamino)methyl)-5a,5b,8,8,11a-pentamethyl-1-(prop-1-en-2-yl)-2,3,3a,4,5,5a,5b,6,7,7a,8,11,11a,11b,12,13,13a,13b-octadecahydro-1H-cyclopenta[a]chrysen-9-yl)benzoic acid]: the EC50 (class symbol) is less than 100 nM.

As to `C=C(C)[C@@H]1CC[C@]2(CNCCS(=O)(=O)N3CCNCC3)CC[C@]3(C)[C@H](CC[C@@H]4[C@@]5(C)CC=C(c6ccc(C(=O)O)cc6)C(C)(C)[C@@H]5CC[C@]43C)[C@@H]12` [Example 43, 4-((1R,3aS,5aR,5bR,7aR,11aS,11bR,13aR,13bR)-5a,5b,8,8,11a-pentamethyl-3a-((2-(piperazin-1-ylsulfonyl)ethylamino)methyl)-1-(prop-1-en-2-yl)-2,3,3a,4,5,5a,5b,6,7,7a,8,11,11a,11b,12,13,13a,13b-octadecahydro-1H-cyclopenta[a]chrysen-9-yl)benzoic acid], the half-maximal effective concentration (EC50) (class symbol) is less than 100 nM.
